Laboratory results as given in patent US11618767B2, “Carboxy substituted glucocorticoid receptor agonists” (Eli Lilly and Company, priority 2021, dated 2023).

Target: T1, GR-LBD (Homo sapiens, UniProt P04150)
T1 construct: purchased Life Technologies A15899
T1 sequence (P04150 524-758 limits assumed): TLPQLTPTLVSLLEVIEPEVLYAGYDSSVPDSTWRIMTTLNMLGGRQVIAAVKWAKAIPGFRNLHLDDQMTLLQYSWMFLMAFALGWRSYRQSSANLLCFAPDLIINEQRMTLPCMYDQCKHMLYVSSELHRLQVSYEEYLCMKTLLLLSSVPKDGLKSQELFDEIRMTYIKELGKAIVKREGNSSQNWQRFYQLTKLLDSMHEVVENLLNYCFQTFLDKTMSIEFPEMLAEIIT
Test: hGR CoActivator Recruitment Assay (LanthaScreen TR-Fret GR Coactivator Assay)
Type: biochemical
Details: TR-FRET emission ratio 520/490; 10-point serial dilution, top concentration 200 nM; Fluorescein-SRC1-4 coactivator peptide; read-out: relative IC50
Protocol: hGR CoActivator Recruitment Assay The activity of glucocorticoid compounds was measured using the LanthaScreen TR-Fret GR Coactivator Assay from Life Technologies (A15899). The compounds were acoustically transferred to an assay plate in a 3-fold 10-point serial dilution with a top concentration of 200 nM. Ten microliters of a 2× solution of GR-LBD was added to the compound plate and incubated for 10 min. Then ten microliters of a 2× solution of Fluoresein-SRC1-4 and Tb labelled anti-GST antibody was added to the plate. The plate was incubated in the dark for two hours and then read on an Envision plate reader, with excitation at 340 nm and emission at 520 nm (Fluorescein) and 490 nm (Terbium). The emission ratio of 520/490 was analyzed in Genedata. To obtain percent activity, the data was compared to a negative control of DMSO and positive control of […] dexamethasone.

Structure (SMILES)	IC50
C[C@]12C=CC(=O)C=C1CC[C@@H]1[C@@H]2[C@@H](O)C[C@@]2(C)[C@H]1C[C@H]1O[C@H](c3ccc(Cc4cccc(C(=O)O)c4)cc3F)O[C@]12C(=O)CO [Example 10]	> 200 nM
C[C@]12C=CC(=O)C=C1CC[C@@H]1[C@@H]2[C@@H](O)C[C@@]2(C)[C@H]1C[C@H]1O[C@H](c3ccc(Oc4cccc(C(=O)O)c4)cc3)O[C@]12C(=O)CO [Example 8]	< 200 nM
Cc1ccc(OCc2cccc(C(=O)O)c2)c(F)c1[C@H]1O[C@@H]2C[C@H]3[C@@H]4CCC5=CC(=O)C=C[C@]5(C)[C@H]4[C@@H](O)C[C@]3(C)[C@]2(C(=O)CO)O1 [Example 4, 3-((2-Fluoro-3-((6aR,6bS,7S,8aS,8bS,10 S,11aR,12a5,12bS)-7-hydroxy-8b-(2-hydroxyacetyl)-6a, 8a-dimethyl-4-oxo-2,4,6a,6b,7,8,8a, 8b,11a,12,12a,12b-dodecahydro-1H-naphtho[2′,1′:4,5]indeno[1,2-d][1,3]dioxol-10-yl)-4-methylphenoxy)methyl)benzoic Acid]	< 200 nM
C[C@]12C=CC(=O)C=C1CC[C@@H]1[C@@H]2[C@@H](O)C[C@@]2(C)[C@H]1C[C@H]1O[C@@H](c3ccc(Cc4cccc(C(=O)O)c4)cc3F)O[C@]12C(=O)CO [Example 9]	< 200 nM
C[C@]12C=CC(=O)C=C1CC[C@@H]1[C@@H]2[C@@H](O)C[C@@]2(C)[C@H]1C[C@H]1O[C@@H](c3ccc(Oc4cccc(C(=O)O)c4)cc3)O[C@]12C(=O)CO [Example 7]	< 200 nM
C[C@]12C=CC(=O)C=C1CC[C@@H]1[C@@H]2[C@@H](O)C[C@@]2(C)[C@H]1C[C@H]1O[C@H](c3ccc(Oc4ccc(C(=O)O)cc4)cc3)O[C@]12C(=O)CO [Example 6]	< 200 nM
C[C@]12C=CC(=O)C=C1CC[C@@H]1[C@@H]2[C@@H](O)C[C@@]2(C)[C@H]1C[C@H]1O[C@H](c3ccc(Cc4ccc(C(=O)O)cc4)cc3F)O[C@]12C(=O)CO (single isomer, unassigned) [Example 2]	4.5 nM
C[C@]12C=CC(=O)C=C1CC[C@@H]1[C@@H]2[C@@H](O)C[C@@]2(C)[C@H]1C[C@H]1O[C@@H](c3ccc(Cc4ccc(C(=O)O)cc4)cc3F)O[C@]12C(=O)CO (single isomer, unassigned) [Example 1]	2.14 nM
C[C@]12C=CC(=O)C=C1CC[C@@H]1[C@@H]2[C@@H](O)C[C@@]2(C)[C@H]1C[C@H]1O[C@@H](c3ccc(Oc4ccc(C(=O)O)cc4)cc3)O[C@]12C(=O)CO [Example 5]	< 200 nM

Now from value to compound:

IC50	Structure (SMILES)
< 200 nM	COc1ccc(OCc2cccc(C(=O)O)c2)c(F)c1[C@@H]1O[C@@H]2C[C@H]3[C@@H]4CCC5=CC(=O)C=C[C@]5(C)[C@H]4[C@@H](O)C[C@]3(C)[C@]2(C(=O)CO)O1 [Example 11]
< 200 nM	Cc1ccc(OCc2ccccc2C(=O)O)c(F)c1[C@H]1O[C@@H]2C[C@H]3[C@@H]4CCC5=CC(=O)C=C[C@]5(C)[C@H]4[C@@H](O)C[C@]3(C)[C@]2(C(=O)CO)O1 [Example 15]
< 200 nM	COc1ccc(OCc2cccc(C(=O)O)c2)c(F)c1[C@H]1O[C@@H]2C[C@H]3[C@@H]4CCC5=CC(=O)C=C[C@]5(C)[C@H]4[C@@H](O)C[C@]3(C)[C@]2(C(=O)CO)O1 [Example 12]
> 200 nM	COc1ccc(OCc2ccccc2C(=O)O)c(F)c1[C@@H]1O[C@@H]2C[C@H]3[C@@H]4CCC5=CC(=O)C=C[C@]5(C)[C@H]4[C@@H](O)C[C@]3(C)[C@]2(C(=O)CO)O1 [Example 13]
< 200 nM	Cc1ccc(OCc2cccc(C(=O)O)c2)c(F)c1[C@@H]1O[C@@H]2C[C@H]3[C@@H]4CCC5=CC(=O)C=C[C@]5(C)[C@H]4[C@@H](O)C[C@]3(C)[C@]2(C(=O)CO)O1 [Example 3, 3-((2-Fluoro-3-((6aR,6bS,7S,8aS,8bS,10R,11aR,12aS,12bS)-7-hydroxy-8b-(2-hydroxyacetyl)-6a, 8a-dimethyl-4-oxo-2,4,6a,6b,7,8,8a,8b,11a,12,12a,12b-dodecahydro-1H-naphtho[2′,1′:4,5]indeno[1,2-d][1,3]dioxol-10-yl)-4-methylphenoxy)methyl)benzoic Acid]
< 200 nM	COc1ccc(OCc2ccccc2C(=O)O)c(F)c1[C@H]1O[C@@H]2C[C@H]3[C@@H]4CCC5=CC(=O)C=C[C@]5(C)[C@H]4[C@@H](O)C[C@]3(C)[C@]2(C(=O)CO)O1 [Example 14]
